From patent US7435837B2, “Dihydrobenzofuranyl alkanamine derivatives and methods for using same” (Wyeth, priority 2003, dated 2008)
Read-outs that look alike come from different tables or passages of the source.

Experiments:
[1] = biological target: T1, human 5-HT2C receptor (Homo sapiens, UniProt P28335); assay: 5-HT2C receptor-stimulated calcium mobilization (FLIPR) in CHO cells; type: cell-based; conditions: for Emax: CHO; for EC50: calcium mobilization, CHO cells stably expressing human 5-HT2C, read-out: 5-HT2C Function EC50;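 on all read-outs here: Fluo-3-AM fluorescence read on FLIPR every 1 s, agonist added after 10 baseline reads, response taken as peak minus lowest raw fluorescence count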
T1 sequence (P28335 33-458): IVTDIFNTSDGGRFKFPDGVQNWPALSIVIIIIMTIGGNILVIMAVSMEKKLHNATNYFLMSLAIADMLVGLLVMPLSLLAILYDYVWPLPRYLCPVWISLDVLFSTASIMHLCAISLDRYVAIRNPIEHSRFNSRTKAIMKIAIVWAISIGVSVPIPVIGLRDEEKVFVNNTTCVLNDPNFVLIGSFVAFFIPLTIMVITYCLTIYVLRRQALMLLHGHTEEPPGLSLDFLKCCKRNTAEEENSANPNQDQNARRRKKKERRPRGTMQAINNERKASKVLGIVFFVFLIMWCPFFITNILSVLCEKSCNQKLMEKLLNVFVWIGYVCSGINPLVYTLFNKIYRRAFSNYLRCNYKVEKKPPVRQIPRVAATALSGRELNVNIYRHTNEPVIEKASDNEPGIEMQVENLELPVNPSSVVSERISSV

[2] = biological target: T2, human 5-hydroxytryptamine-2C (h5-HT2C) receptor (Homo sapiens, UniProt P28335); assay: [125I]DOI binding to membranes of CHO cells expressing the human 5-HT2C receptor; conditions: [125I]DOI radioligand, CHO cell membranes, room temperature 60 min; read-out: 5-HT2C Affinity Ki
T2 construct: expressed in transfected cells; host or cells: CHO (Chinese Hamster Ovary) cells; membranes
T2 sequence (P28335 33-458): T1 sequence (P28335 33-458)

[3] = percentage of the response observed with a maximally effective concentration of 5-HT, read-out: 5-HT2C Function Emax (%)
[4] = percentage of the response observed with a maximally effective concentration of 5-HT

Emax [1, 3] [%] | EC50 [1] [nM] | Ki [2] [nM] | 5-HT2C Function Emax (%) [1, 4] [%] | Structure (SMILES) | Emax ([1]; read-out: 5-HT2C Function Emax (%), percentage of the response observed with a maximally effective concentration of 5-HT) [%]
80 | 394 | 13 | – | COc1cc2c(c(-c3cc(F)ccc3F)c1)OC(CN)C2 (racemic) [Example 366, (±)-{[7-(2,5-difluorophenyl)-5-methoxy-2,3-dihydro-1-benzofuran-2-yl]methyl}amine] | –
80 | 4 | 0.6 | – | CNCC1Cc2cccc(-c3c(Cl)cc(Cl)cc3Cl)c2O1 (racemic) [Example 555, (±)-{N-methyl-1-[(7-(2,4,6-trichlorophenyl)-2,3-dihydro-1-benzofuran-2-yl]methanamine] | –
90 | 70 | 164 | – | NCC1Cc2cc(C(F)(F)F)cc(-c3ccccc3F)c2O1 (racemic) [Example 313, (±)-{[5-(trifluoromethyl)-7-(2-fluorophenyl)-2,3-dihydro-1-benzofuran-2-yl]methyl}amine] | –
60 | 510 | 46 | – | CNCC1Cc2cc(OC)cc(-c3cccc(C)c3C)c2O1 (racemic) [Example 496, (±)-{[7-(2,3-dimethylphenyl)-5-methoxy-2,3-dihydro-1-benzofuran-2-yl]methyl}methylamine] | –
70 | 43 | 0.51 | – | CNCC1Cc2cc(C)cc(-c3cccc(OC)c3OC)c2O1 (racemic) [Example 484, (±)-{[7-(2,3-dimethoxyphenyl)-5-methyl-2,3-dihydro-1-benzofuran-2-yl]methyl}methylamine] | –
70 | 70 | 45 | – | CNCC1Cc2cc(OC)cc(-c3cc(OC)ccc3OC)c2O1 (racemic) [Example 501, (±)-{[7-(2,5-dimethoxyphenyl)-5-methoxy-2,3-dihydro-1-benzofuran-2-yl]methyl}methylamine] | –
90 | 32 | 3 | – | CNCC1Cc2cc(C)cc(-c3ccc(Cl)cc3Cl)c2O1 (racemic) [Example 485, (±)-{[7-(2,4-dichlorophenyl)-5-methyl-2,3-dihydro-1-benzofuran-2-yl]methyl}methylamine] | –
90 | 30 | 11 | – | Cc1cc2c(c(-c3ccc(Cl)cc3Cl)c1)OC(CN)C2 (single isomer, unassigned; (-)) [Example 298, (−)-{[7-(2,4-dichlorophenyl)-5-methyl-2,3-dihydro-1-benzofuran-2-yl]methyl}amine] | –
100 | 9 | 1.2 | – | CNCC1Cc2cc(F)cc(-c3ccccc3C)c2O1 (racemic) [Example 440, (±)-{[5-fluoro-7-(2-methylphenyl)-2,3-dihydro-1-benzofuran-2-yl]methyl}methylamine] | –
90 | 0.7 | 0.38 | – | CNCC1Cc2ccc(F)c(-c3ccccc3C)c2O1 (racemic) [Example 401, (±)-{[6-fluoro-7-(2-methylphenyl)-2,3-dihydro-1-benzofuran-2-yl]methyl}methylamine] | –
100 | 50 | 4.1 | – | CNCC1Cc2cc(F)cc(-c3cc(OC)ccc3C)c2O1 (racemic) [Example 456, (±)-{[5-fluoro-7-(5-methoxy-2-methylphenyl)-2,3-dihydro-1-benzofuran-2-yl]methyl}methylamine] | –
70 | 326 | 35 | – | CNCC1Cc2cc(OC)cc(-c3cc(F)ccc3F)c2O1 (racemic) [Example 498, (±)-{[7-(2,5-difluorophenyl)-5-methoxy-2,3-dihydro-1-benzofuran-2-yl]methyl}methylamine] | –
80 | 89 | 21 | – | CNCC1Cc2cc(Cl)cc(-c3cccc(F)c3F)c2O1 (racemic) [Example 463, (±)-{[5-chloro-7-(2,3-difluorophenyl)-2,3-dihydro-1-benzofuran-2-yl]methyl}methylamine] | –

More lines, now with the values behind:

Structure (SMILES) | Emax [1, 3] [%] | EC50 [1] [nM] | Ki [2] [nM] | 5-HT2C Function Emax (%) [1, 4] [%] | Emax ([1]; read-out: 5-HT2C Function Emax (%), percentage of the response observed with a maximally effective concentration of 5-HT) [%]
Cc1cc2c(c(-c3ccccc3C)c1)OC(CN)C2 (racemic) [Example 282, (±)-{[7-(2-methylphenyl)-5-methyl-2,3-dihydro-1-benzofuran-2-yl]methyl}amine] | 90 | 43 | 1.7 | – | –
CC(C)(C)c1cc(Cl)cc2c1OC(CN)C2 (single isomer, unassigned; (+)) [Example 29, (+)-1-(7-tert-butyl-5-chloro-2,3-dihydro-1-benzofuran-2-yl)methanamine] | – | 229 | 35 | 80 | –
Cc1cccc(-c2cc(C)cc3c2OC(CN)C3)c1 (racemic) [Example 289, (±)-{[7-(3-methylphenyl)-5-methyl-2,3-dihydro-1-benzofuran-2-yl]methyl}amine] | 100 | 44 | 1 | – | –
CC(C)(C)c1cc(Cl)cc2c1OC(CN)C2 (racemic) [Example 27, (±)-1-(7-tert-butyl-5-chloro-2,3-dihydro-1-benzofuran-2-yl)methanamine] | 80 | 2020 | 39 | – | –
COc1cccc(-c2cccc3c2OC(CN)C3)c1 (single isomer, unassigned; (+)) [Example 133, (+)-1-[7-(3-methoxyphenyl)-2,3-dihydro-1-benzofuran-2-yl]methanamine] | 80 | 66 | 3.6 | – | –
CNCC1Cc2cc(F)cc(-c3ccc(Cl)cc3Cl)c2O1 (racemic) [Example 445, (±)-[7-(2,4-dichlorophenyl)-5-fluoro-2,3-dihydro-1-benzofuran-2-yl]methyl}methylamine] | – | 1 | 0.48 | – | 90
Cc1cccc(C)c1-c1cc(Cl)cc2c1OC(CN)C2 (single isomer, unassigned; (-)) [Example 261, (−)-{[5-chloro-7-(2,6-dimethylphenyl)-2,3-dihydro-1-benzofuran-2-yl]methyl}amine] | 90 | 67 | 0.5 | – | –
Cc1cc2c(c(-c3ccc(Cl)cc3)c1)OC(CN)C2 (racemic) [Example 292, (±)-{[7-(4-chlorophenyl)-5-methyl-2,3-dihydro-1-benzofuran-2-yl]methyl}amine] | 100 | 66 | 4.9 | – | –
NCC1Cc2c(cccc2-c2ccccc2C(F)(F)F)O1 (racemic) [Example 122, (±)-1-{4-[2-(trifluoromethyl)phenyl]-2,3-dihydro-1-benzofuran-2-yl}methanamine] | 70 | 931 | 95 | – | –
Cc1cccc(-c2cc(Cl)cc3c2OC(CN)C3)c1C (racemic) [Example 248, (±)-{[5-chloro-7-(2,3-dimethylphenyl)-2,3-dihydro-1-benzofuran-2-yl]methyl}amine] | 80 | 225 | 9 | – | –
NCC1Cc2cc(Cl)cc(-c3ccccc3)c2O1 (single isomer, unassigned; (-)) [Example 86, (−)-1-(5-chloro-7-phenyl-2,3-dihydro-1-benzofuran-2-yl)methanamine] | – | 963 | 75 | 90 | –
NCC1Cc2cccc(-c3ccccc3C(F)(F)F)c2O1 (racemic) [Example 53, (±)-1-{7-[2-(trifluoromethyl)phenyl]-2,3-dihydro-1-benzofuran-2-yl}methanamine] | 80 | 45 | 1 | – | –
CNCC1Cc2cc(Cl)cc(-c3ccsc3)c2O1 (single isomer, unassigned; (+)) [Example 93, (+)-N-[(5-chloro-7-thien-3-yl-2,3-dihydro-1-benzofuran-2-yl)methyl]-N-methylamine] | 80 | 874 | 13 | – | –
NCC1Cc2cc(Cl)cc(-c3ccsc3)c2O1 (single isomer, unassigned; (-)) [Example 91, (−)-(5-chloro-7-thien-3-yl-2,3-dihydro-1-benzofuran-2-yl)methylamine] | 100 | 45 | 5 | – | –
Cc1cc2c(c(-c3ccccc3Cl)c1)OC(CN)C2 (racemic) [Example 286, (±)-{[7-(2-chlorophenyl)-5-methyl-2,3-dihydro-1-benzofuran-2-yl]methyl}amine] | 100 | 6 | 0.76 | – | –
COc1ccc(-c2cccc3c2OC(CN)C3)cc1 (single isomer, unassigned; (+)) [Example 80, (+)-1-[7-(4-methoxyphenyl)-2,3-dihydro-1-benzofuran-2-yl]methanamine] | – | 17 | 1 | 90 | –
NCC1Cc2cc(F)cc(-c3ccccc3C(F)(F)F)c2O1 (single isomer, unassigned; (-)) [Example 151, (−)-1-{5-fluoro-7-[2-(trifluoromethyl)phenyl]-2,3-dihydro-1-benzofuran-2-yl}methanamine] | – | 27 | 1.1 | 100 | –
Cc1ccccc1-c1cccc2c1OC(CN)C2 (single isomer, unassigned; (+)) [Example 48, (+)-1-[7-(2-methylphenyl)-2,3-dihydro-1-benzofuran-2-yl]methanamine] | 100 | 2.4 | 0.3 | – | –
